Like-named read-outs stand apart in the source and are kept apart here.
Experiments:
MAPKAPK2 (MK-2) = MAPKAPK2 (MK-2) (Homo sapiens, UniProt P49137); experiment: Determination of MK-2 IC50 (HSP-peptide phosphorylation, anion exchange resin capture assay); type: biochemical
Method in brief: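 MAPKAPK2, preactivated by p38α with 0.25 mM ATP for 1 h at 30° C, used at 15 nM to phosphorylate HSP-peptide with 0.03 mM ATP plus [γ33P]ATP, pH 7.5, 2% DMSO, 30 min at 30° C. Labelled peptide counted after anion-exchange resin capture; IC50 from six ten-fold dilutions, triplicate.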

MK-3 = MK-3 (Homo sapiens, UniProt Q16644); experiment: MK-3 inhibition IC50 (similar method to MK-2, with appropriate modifications); type: biochemical
Protocol: In practice, the selectivity of a cyclic pyrazole MK-2 inhibitor varies depending upon the condition under which the test is performed and on the inhibitors being tested. However, for the purposes of this specification, the selectivity of a cyclic pyrazole MK-2 inhibitor inhibitor can be measured as a ratio of the in vitro or in vivo IC50 value for inhibition of MK-3, divided by the IC50 value for inhibition of MK-2 (IC50 MK-3/IC50 MK-2). […] The MK-2 or MK-3 inhibiting activity of any of the compounds described herein can be determined by any one of several methods that are well known to those having skill in the art of enzyme activity testing. […] A similar method, with appropriate modifications, Can be used to measure MK-3 inhibitory activity. In addition, the efficacy of one of the present MK-2 inhibiting compounds in therapeutic applications can be determined by testing for inhibition of TNFα production in cell culture and in animal model assays.

[1] = Table 2, pyrazolylpyrazole MK-2 inhibitors, read-out: MK-2 Avg. IC50
[2] = Table 2, pyrazolylpyrazole MK-2 inhibitors, read-out: MK-3 Avg. IC50
[3] = Table 1, phenoxypyrazole MK-2 inhibitors, read-out: MK-2 Avg, IC50
[4] = Table 1, phenoxypyrazole MK-2 inhibitors, read-out: MK-3 Avg. IC50
[5] = Table 5, other cyclic pyrazole MK-2 inhibiting compounds, read-out: MK-2 Avg. IC50
[6] = Table 5, other cyclic pyrazole MK-2 inhibiting compounds, read-out: MK-3 Avg. IC50

Chain of MAPKAPK2 (MK-2) (P49137 whole entry, species assumed): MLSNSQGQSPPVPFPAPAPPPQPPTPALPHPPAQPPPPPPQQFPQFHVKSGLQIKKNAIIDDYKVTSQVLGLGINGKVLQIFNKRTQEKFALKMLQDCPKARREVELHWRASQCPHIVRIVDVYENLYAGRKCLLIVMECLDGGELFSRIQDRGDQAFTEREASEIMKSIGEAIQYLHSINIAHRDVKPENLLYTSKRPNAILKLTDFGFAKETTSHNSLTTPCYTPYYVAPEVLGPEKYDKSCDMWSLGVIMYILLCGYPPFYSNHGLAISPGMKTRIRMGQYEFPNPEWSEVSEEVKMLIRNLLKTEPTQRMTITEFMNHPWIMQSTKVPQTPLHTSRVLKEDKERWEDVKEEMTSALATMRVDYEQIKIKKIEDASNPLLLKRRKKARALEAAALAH
Chain of MK-3 (Q16644 whole entry, species assumed): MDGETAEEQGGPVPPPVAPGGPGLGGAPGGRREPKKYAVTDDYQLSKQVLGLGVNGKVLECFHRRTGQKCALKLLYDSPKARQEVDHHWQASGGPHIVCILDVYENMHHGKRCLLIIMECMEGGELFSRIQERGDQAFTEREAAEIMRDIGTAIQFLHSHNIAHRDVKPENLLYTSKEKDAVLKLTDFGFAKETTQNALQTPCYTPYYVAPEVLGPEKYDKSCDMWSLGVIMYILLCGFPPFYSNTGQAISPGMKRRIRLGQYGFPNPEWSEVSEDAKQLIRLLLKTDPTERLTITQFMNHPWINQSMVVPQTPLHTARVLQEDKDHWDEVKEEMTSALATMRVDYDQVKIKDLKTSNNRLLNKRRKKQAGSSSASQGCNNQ

SMILES | IC50 (MAPKAPK2 (MK-2); [3]) [µM] | IC50 (MK-3; [4]) [µM] | IC50 (MAPKAPK2 (MK-2); read-out: MK-2 Avg. IC50) [µM] | IC50 (MK-3; read-out: MK-3 Avg. IC50) [µM] | other results
CSc1n[nH]c2c1-c1nn3c(c1CC2)C(=O)NCCC3 [Example 11] |  |  |  |  | IC50 (MAPKAPK2 (MK-2); [1]): 10.5 µM; IC50 (MK-3; [2]): ≥ 200 µM
CCOC(=O)c1nn(-c2ccc(S(N)(=O)=O)cc2)c2c1CCc1cc(OC)c(OC)cc1-2 [Example 174] | > 200 | > 200 |  |  | 
C=CCn1nc2c(c1C(=O)OCC)CCc1c-2cnn1C(c1ccccc1)(c1ccccc1)c1ccccc1 [Example 74] |  |  |  |  | IC50 (MAPKAPK2 (MK-2); [1]): ≥ 200 µM; IC50 (MK-3; [2]): ≥ 200 µM
N#Cc1cccc(-c2cc3c(cc2O)CCc2c-3nn(CCCN)c2C(=O)O)c1 [Example 10] | 5.35 | 168 |  |  | 
COc1ccc(CCNCCCn2nc3c(c2C(=O)O)CCc2cnccc2-3)cc1OC [Example 100] |  |  | 2.33 | 48.1 | 
NC(=O)c1[nH]nc2c1CCc1cc(O)ccc1-2 [Example 33] | 39.2 | 107 |  |  | 
O=C(O)c1c2c(nn1CCCNCCc1ccsc1)-c1cn[nH]c1CC2 [Example 8] |  |  |  |  | IC50 (MAPKAPK2 (MK-2); [1]): 7.84 µM; IC50 (MK-3; [2]): 48.5 µM
O=C(O)c1c2c(nn1CCCNCCc1ccc(-c3cccc(C(F)(F)F)c3)cc1)-c1ccncc1CC2 [Example 21] |  |  | 0.103 | 10.4 | 
N#Cc1ccc(CCCNCCCn2nc3c(c2C(=O)O)CCc2cnccc2-3)cc1 [Example 58] |  |  | 0.561 | 44.3 | 
O=C(O)c1c2c(nn1CCCNCCc1ccc(-c3ccc(C(F)(F)F)cc3)cc1)-c1ccncc1CC2 [Example 26] |  |  | 0.147 | 9.04 | 
O=C(O)c1c2c(nn1CCCNCCc1ccc(Cl)cc1Cl)-c1ccncc1CC2 [Example 47] |  |  | 0.347 | 6.59 | 
CS(=O)(=O)c1cccc(-c2cc3c(cc2O)CCc2c-3nn(CCCN)c2C(=O)O)c1 [Example 16] | 12.9 | > 200 |  |  | 
NCCCn1nc2c(c1C(=O)O)CCc1cnc(/C=C/c3ccccc3)cc1-2 [Example 33] |  |  |  |  | IC50 (MAPKAPK2 (MK-2); [5]): 0.0329 µM; IC50 (MK-3; [6]): 0.528 µM
O=C(O)c1c2c(nn1CCCNCCc1ccc(-c3csc4ccccc34)cc1)-c1ccncc1CC2 [Example 60] |  |  | 0.575 | 15.6 | 
COC(=O)c1nn(-c2ccc(Cl)cc2)c2c1CCc1cc(OC)ccc1-2 [Example 159] | > 200 | > 200 |  |  | 
COc1cc2c(cc1-c1cccc(S(C)(=O)=O)c1)-c1nn(CCCNC(=O)OC(C)(C)C)c(C(=O)O)c1CC2 [Example 57] | 143 | > 200 |  |  | 
CCOC(=O)c1nn(CC(F)(F)F)c2c1CCc1[nH]ncc1-2 [Example 80] |  |  |  |  | IC50 (MAPKAPK2 (MK-2); [1]): ≥ 200 µM; IC50 (MK-3; [2]): 124 µM
CC(C)(C)c1ccc(-c2cc3c(cc2O)CCc2c-3nn(CCCN)c2C(=O)O)cc1 [Example 22] | 18.8 | 120 |  |  | 
NCCCn1nc2c(c1C(=O)O)CCc1cnc(-c3cnc4ccccc4c3)cc1-2 [Example 1] |  |  | 0.00946 | 0.0354 | 
CCOC(=O)c1[nH]nc2c1CCc1c-2cnn1C [Example 50] |  |  |  |  | IC50 (MAPKAPK2 (MK-2); [1]): ≥ 200 µM; IC50 (MK-3; [2]): ≥ 200 µM
NCc1cccc(-c2ccc(CCNCCCn3nc4c(c3C(=O)O)CCc3cnccc3-4)cc2)c1 [Example 67] |  |  | 0.663 | 10 | 

SMILES | IC50 (MAPKAPK2 (MK-2); [3]) [µM] | IC50 (MK-3; [4]) [µM] | IC50 (MAPKAPK2 (MK-2); read-out: MK-2 Avg. IC50) [µM] | IC50 (MK-3; read-out: MK-3 Avg. IC50) [µM] | other results
O=C1NCCn2nc3c(c21)CCc1cnc(-c2cccc4cccnc24)cc1-3 [Example 171] |  |  | 14 | 74.8 | 
Cn1nc2c(c1C(N)=O)CCc1cc(O)ccc1-2 [Example 71] | 179 | > 200 |  |  | 
CC(C)(C)c1ccc(-c2cc3c(cn2)CCc2c-3nn(CCCN)c2C(=O)O)cc1 [Example 22] |  |  | 0.112 | 0.426 | 
CONC(=O)c1[nH]nc2c1CCc1[nH]ncc1-2 [Example 39] |  |  |  |  | IC50 (MAPKAPK2 (MK-2); [1]): 141 µM; IC50 (MK-3; [2]): 180 µM
COc1cc2c(cc1OC)-c1n[nH]c(C(=O)O)c1CC2 [Example 173] | > 200 | > 200 |  |  | 
O=C(O)c1nn(CC(F)(F)F)c2c1CCc1[nH]ncc1-2 [Example 42] |  |  |  |  | IC50 (MAPKAPK2 (MK-2); [1]): 180 µM; IC50 (MK-3; [2]): ≥ 200 µM
O=C1NCCCn2nc3c(c21)CCc1cnc(-c2cccnc2)nc1-3 [Example 5] |  |  |  |  | IC50 (MAPKAPK2 (MK-2); Table 4, pyrimidylpyrazole MK-2 inhibitors, read-out: MK-2 Avg. IC50): 1.58 µM; IC50 (MK-3; Table 4, pyrimidylpyrazole MK-2 inhibitors, read-out: NK-3 Avg. IC50): 168 µM
O=C(O)c1c2c(nn1CCCNCCc1ccc(-c3ccccc3Cl)cc1)-c1ccncc1CC2 [Example 32] |  |  | 0.185 | 9.61 | 
NCCCn1nc2c(c1C(=O)O)CCc1cc(O)c(Br)cc1-2 [Example 8] | 3.75 | > 200 |  |  | 
C=CCn1nc(C(N)=O)c2c1-c1cn[nH]c1CC2 [Example 26] |  |  |  |  | IC50 (MAPKAPK2 (MK-2); [1]): 95.1 µM; IC50 (MK-3; [2]): 49.3 µM
CC(C)(CCc1cc2c(cc1O)CCc1c-2nn(CCCN)c1C(=O)O)CC(=O)O [Example 26] | 22.2 | 135 |  |  | 
COC(=O)c1nn(-c2ccc(S(N)(=O)=O)cc2)c2c1CCc1cc(OC)ccc1-2 [Example 172] | > 200 | > 200 |  |  | 
CCOC(=O)c1c2c(nn1C)-c1ccc(O)cc1CC2 [Example 157] | > 200 | > 200 |  |  | 
COc1ccccc1-c1cc2c(cn1)CCc1c-2nn(CCCN)c1C(=O)O [Example 66] |  |  | 0.632 | 6.87 | 
CCOC(=O)c1nn(-c2ccc(S(N)(=O)=O)cc2)c2c1CCc1cc(O)ccc1-2 [Example 176] | > 200 | > 200 |  |  | 
N#Cc1cccc(-c2cc3c(cn2)CCc2c-3nn(CCCN)c2C(=O)O)c1 [Example 8] |  |  | 0.0302 | 0.226 | 
O=C(O)c1[nH]nc2c1CCc1cc(O)c(O)cc1-2 [Example 28] | 28.3 | > 200 |  |  | 
O=C(O)c1c2c(nn1C1CCNCC1)-c1cn[nH]c1CC2 [Example 21] |  |  |  |  | IC50 (MAPKAPK2 (MK-2); [1]): 60.4 µM; IC50 (MK-3; [2]): ≥ 200 µM
O=C1NCCCn2nc3c(c21)CCc1cnc(Nc2ccccc2)cc1-3 [Example 131] |  |  | 4.68 | 25.2 | 
NCCCn1nc2c(c1C(=O)O)CCc1cnc(-c3ccc4ccccc4c3)cc1-2 [Example 5] |  |  | 0.023 | 0.0698 | 
O=C(O)c1c2c(nn1CCCNCCc1ccc(/C=C/c3ccccc3)cc1)-c1cc(/C=C/c3ccccc3)ncc1CC2 [Example 35] |  |  |  |  | IC50 (MAPKAPK2 (MK-2); [5]): 0.528 µM; IC50 (MK-3; [6]): > 20 µM

SMILES | IC50 (MAPKAPK2 (MK-2); [3]) [µM] | IC50 (MK-3; [4]) [µM] | IC50 (MAPKAPK2 (MK-2); read-out: MK-2 Avg. IC50) [µM] | IC50 (MK-3; read-out: MK-3 Avg. IC50) [µM] | other results
C=CCn1nc2c(c1C(N)=O)CCc1cc(OCOCCOC)ccc1-2 [Example 80] | > 200 | > 200 |  |  | 
O=C1NCCn2nc3c(c21)CCc1cnc(/C=C/c2ccccc2F)cc1-3 [Example 11] |  |  |  |  | IC50 (MAPKAPK2 (MK-2); [5]): 4.46 µM; IC50 (MK-3; [6]): > 200 µM
COC(=O)c1[nH]nc2c1CCc1cc(O)ccc1-2 [Example 181] | > 200 | > 200 |  |  | 
COc1cc2c(cc1OC)-c1c(c(C(N)=O)nn1-c1ccc(S(N)(=O)=O)cc1)CC2 [Example 175] | > 200 | > 200 |  |  | 
COc1cc2c(cc1-c1ccc(Cl)cc1)-c1nn(CCCNC(=O)OC(C)(C)C)c(C(=O)O)c1CC2 [Example 49] | 98.1 | 161 |  |  | 
NCCCn1nc2c(c1C(=O)O)CCc1cc(O)c(CCC(F)(F)F)cc1-2 [Example 12] | 8.11 | 149 |  |  | 
COc1ccc(-c2cc3c(cn2)CCc2c-3nn3c2C(=O)NCCC3)cc1 [Example 25] |  |  | 0.142 | 6.52 | 
O=C(O)c1nn(C2CCN(C(=O)OCc3ccccc3)CC2)c2c1CCc1c-2cnn1C(c1ccccc1)(c1ccccc1)c1ccccc1 [Example 19] |  |  |  |  | IC50 (MAPKAPK2 (MK-2); [1]): 46.5 µM; IC50 (MK-3; [2]): ≥ 200 µM
CC1Cc2c(n[nH]c2C(=O)O)-c2ccc(O)cc21 (stereo not shown) [Example 48] | 97.1 | > 200 |  |  | 
COc1cc2c(cc1-c1ccccc1Cl)-c1nn(CCCNC(=O)OC(C)(C)C)c(C(=O)O)c1CC2 [Example 52] | 109 | > 200 |  |  | 
NCCCn1nc2c(c1C(=O)O)CCc1cnc(-c3cccc(O)c3)cc1-2 [Example 4] |  |  | 0.0194 | 0.55 | 
O=C1NCCn2nc3c(c21)CCc1cnc(N2CCSCC2)cc1-3 [Example 203] |  |  | 35.6 | 3.3 | 
O=C(O)c1c2c(nn1CCCNCCc1ccc(-c3cccc(Cl)c3)cc1)-c1ccncc1CC2 [Example 24] |  |  | 0.13 | 5.85 | 
O=C(O)c1c2c(nn1CCCNCCCc1cccc(Cl)c1)-c1ccncc1CC2 [Example 35] |  |  | 0.207 | 8.57 | 
O=C1NCCn2nc3c(c21)CCc1cnc(N2Cc4ccccc4C2)cc1-3 [Example 157] |  |  | 9.58 | 45.4 | 
O=C(O)c1c2c(nn1CCCNCCc1ccc([N+](=O)[O-])cc1)-c1ccncc1CC2 [Example 69] |  |  | 0.765 | 11.9 | 
O=C(O)c1c2c(nn1CCCNCCc1ccc(-c3ccccc3C(F)(F)F)cc1)-c1ccncc1CC2 [Example 70] |  |  | 0.801 | 44.8 | 
NCCn1nc2c(c1C(=O)O)CCc1cnc(/C=C/c3ccccc3)cc1-2 [Example 37] |  |  |  |  | IC50 (MAPKAPK2 (MK-2); [5]): 0.0413 µM; IC50 (MK-3; [6]): 1.21 µM
C=CCn1nc2c(c1C(=O)O)CCc1cc(O)ccc1-2 [Example 31] | 35.6 | > 200 |  |  | 
C=CCSc1n[nH]c2c1-c1nn(CCCN)c(C(=O)O)c1CC2 [Example 5] |  |  |  |  | IC50 (MAPKAPK2 (MK-2); [1]): 2.84 µM; IC50 (MK-3; [2]): 41.4 µM

— US20040127492A1 (Pharmacia Corporation, priority 2002, published 2004)
